± gives the expanded uncertainty stated by the source.
Assay: mn = molality of the nth substance listed, in mol/kg
Conditions: Liquid; for viscosity: Falling or rolling sphere viscometry; for mass density: Vibrating tube method

O=S1(=O)CCCC1 [sulfolane] + O=C=O
Conditions	mass density [kg/m3]	viscosity [mPa·s]
303.15 K, 118.4 kPa, m2 = 0.103	1260 ± 1	9.99 ± 0.26
303.15 K, 191.2 kPa, m2 = 0.174	1259 ± 1	9.8 ± 0.26
303.15 K, 316.5 kPa, m2 = 0.284	1258 ± 1	9.36 ± 0.25
303.15 K, 495.3 kPa, m2 = 0.438	1256 ± 1	8.97 ± 0.24
303.15 K, 648.5 kPa, m2 = 0.598	1255 ± 1	8.34 ± 0.23
303.15 K, 777.7 kPa, m2 = 0.709	1254 ± 1	7.85 ± 0.23
303.15 K, 1063.8 kPa, m2 = 1.001	1253 ± 1	7 ± 0.21
303.15 K, 1253.8 kPa, m2 = 1.205	1252 ± 1	6.48 ± 0.2
303.15 K, 1447.1 kPa, m2 = 1.423	1252 ± 1	5.96 ± 0.19
313.15 K, 121.8 kPa, m2 = 0.0954	1252 ± 1	7.98 ± 0.2
313.15 K, 200.8 kPa, m2 = 0.1579	1250 ± 1	7.73 ± 0.2
313.15 K, 324.9 kPa, m2 = 0.2571	1249 ± 1	7.61 ± 0.19
313.15 K, 526 kPa, m2 = 0.4296	1247 ± 1	7.13 ± 0.18
313.15 K, 732.9 kPa, m2 = 0.5763	1246 ± 1	6.88 ± 0.18
313.15 K, 855.1 kPa, m2 = 0.6803	1245 ± 1	6.36 ± 0.17
313.15 K, 1169.6 kPa, m2 = 0.9594	1243 ± 1	5.81 ± 0.16
313.15 K, 1383.5 kPa, m2 = 1.159	1243 ± 1	5.28 ± 0.15
313.15 K, 1644.1 kPa, m2 = 1.385	1242 ± 1	4.99 ± 0.14
323.15 K, 141.1 kPa, m2 = 0.093	1242 ± 1	6.21 ± 0.16
323.15 K, 238.4 kPa, m2 = 0.163	1241 ± 1	6.1 ± 0.16
323.15 K, 392.8 kPa, m2 = 0.266	1239 ± 1	5.97 ± 0.15
323.15 K, 632 kPa, m2 = 0.417	1237 ± 1	5.69 ± 0.14
323.15 K, 817.7 kPa, m2 = 0.557	1235 ± 1	5.46 ± 0.14
323.15 K, 993.9 kPa, m2 = 0.692	1234 ± 1	5.16 ± 0.13
323.15 K, 1413.4 kPa, m2 = 1.019	1232 ± 1	4.68 ± 0.12
323.15 K, 1706.6 kPa, m2 = 1.217	1231 ± 1	4.28 ± 0.11
323.15 K, 2006.9 kPa, m2 = 1.472	1231 ± 1	3.98 ± 0.1
333.15 K, 153.2 kPa, m2 = 0.091	1233 ± 1	5.14 ± 0.13
333.15 K, 263.6 kPa, m2 = 0.158	1232 ± 1	5.09 ± 0.13
333.15 K, 436.2 kPa, m2 = 0.257	1229 ± 1	4.92 ± 0.13
333.15 K, 694.6 kPa, m2 = 0.415	1226 ± 1	4.5 ± 0.12
333.15 K, 896.4 kPa, m2 = 0.54	1224 ± 1	4.4 ± 0.11
333.15 K, 1035.8 kPa, m2 = 0.626	1223 ± 1	4.27 ± 0.11
333.15 K, 1456.6 kPa, m2 = 0.886	1220 ± 1	3.87 ± 0.1
333.15 K, 1761.6 kPa, m2 = 1.061	1218 ± 1	3.69 ± 0.1
343.15 K, 168.2 kPa, m2 = 0.087	1223 ± 1	4.19 ± 0.11
343.15 K, 296.7 kPa, m2 = 0.155	1222 ± 1	4.06 ± 0.11
343.15 K, 477.6 kPa, m2 = 0.249	1219 ± 1	4 ± 0.11
343.15 K, 758.5 kPa, m2 = 0.402	1216 ± 1	3.61 ± 0.1
343.15 K, 978.6 kPa, m2 = 0.526	1213 ± 1	3.63 ± 0.1
343.15 K, 1118.9 kPa, m2 = 0.603	1211 ± 1	3.46 ± 0.09
343.15 K, 1538.6 kPa, m2 = 0.853	1207 ± 1	3.24 ± 0.08
343.15 K, 1852.6 kPa, m2 = 1.011	1205 ± 1	3.02 ± 0.07
343.15 K, 2326.1 kPa, m2 = 1.305	1203 ± 1	2.92 ± 0.07
353.15 K, 178.9 kPa, m2 = 0.08	1215 ± 1	3.5 ± 0.09
353.15 K, 305 kPa, m2 = 0.137	1212 ± 1	3.27 ± 0.09
353.15 K, 509.4 kPa, m2 = 0.232	1209 ± 1	3.14 ± 0.08
353.15 K, 828 kPa, m2 = 0.38	1205 ± 1	3.16 ± 0.08
353.15 K, 1248.9 kPa, m2 = 0.581	1199 ± 1	3 ± 0.07
353.15 K, 1720.3 kPa, m2 = 0.822	1194 ± 1	2.78 ± 0.06
353.15 K, 1911.1 kPa, m2 = 0.924	1192 ± 1	2.62 ± 0.06
363.15 K, 188.8 kPa, m2 = 0.076	1205 ± 1	2.84 ± 0.07
363.15 K, 327.8 kPa, m2 = 0.133	1203 ± 1	2.74 ± 0.07
363.15 K, 555 kPa, m2 = 0.225	1199 ± 1	2.64 ± 0.07
363.15 K, 902.8 kPa, m2 = 0.366	1194 ± 1	2.49 ± 0.06
363.15 K, 1404.2 kPa, m2 = 0.573	1189 ± 1	2.39 ± 0.06
363.15 K, 2015 kPa, m2 = 0.822	1185 ± 1	2.24 ± 0.05

— the NIST ThermoML archive (doi:10.1016/j.jct.2015.01.001)
